14 compounds from ChEMBL document CHEMBL1141136, “Discovery of potent poly(ADP-ribose) polymerase-1 inhibitors from the modification of indeno[1,2-c]isoquinolinone” (J Med Chem, 2005) can be followed below.

pIC50: −log10 of the molar value. Several values for one entry are separate records, joined by “and”; a condition that tells them apart may be missing. Equal entries are not always repeated.

The target of the assay is Poly [ADP-ribose] polymerase 1 (Homo sapiens, UniProt P09874). Nature of the assay: Inhibitory concentration against purified poly ADP-ribose polymerase-1 done in PARP inhibition assay kit.
Chain of Poly [ADP-ribose] polymerase 1 (P09874 whole entry): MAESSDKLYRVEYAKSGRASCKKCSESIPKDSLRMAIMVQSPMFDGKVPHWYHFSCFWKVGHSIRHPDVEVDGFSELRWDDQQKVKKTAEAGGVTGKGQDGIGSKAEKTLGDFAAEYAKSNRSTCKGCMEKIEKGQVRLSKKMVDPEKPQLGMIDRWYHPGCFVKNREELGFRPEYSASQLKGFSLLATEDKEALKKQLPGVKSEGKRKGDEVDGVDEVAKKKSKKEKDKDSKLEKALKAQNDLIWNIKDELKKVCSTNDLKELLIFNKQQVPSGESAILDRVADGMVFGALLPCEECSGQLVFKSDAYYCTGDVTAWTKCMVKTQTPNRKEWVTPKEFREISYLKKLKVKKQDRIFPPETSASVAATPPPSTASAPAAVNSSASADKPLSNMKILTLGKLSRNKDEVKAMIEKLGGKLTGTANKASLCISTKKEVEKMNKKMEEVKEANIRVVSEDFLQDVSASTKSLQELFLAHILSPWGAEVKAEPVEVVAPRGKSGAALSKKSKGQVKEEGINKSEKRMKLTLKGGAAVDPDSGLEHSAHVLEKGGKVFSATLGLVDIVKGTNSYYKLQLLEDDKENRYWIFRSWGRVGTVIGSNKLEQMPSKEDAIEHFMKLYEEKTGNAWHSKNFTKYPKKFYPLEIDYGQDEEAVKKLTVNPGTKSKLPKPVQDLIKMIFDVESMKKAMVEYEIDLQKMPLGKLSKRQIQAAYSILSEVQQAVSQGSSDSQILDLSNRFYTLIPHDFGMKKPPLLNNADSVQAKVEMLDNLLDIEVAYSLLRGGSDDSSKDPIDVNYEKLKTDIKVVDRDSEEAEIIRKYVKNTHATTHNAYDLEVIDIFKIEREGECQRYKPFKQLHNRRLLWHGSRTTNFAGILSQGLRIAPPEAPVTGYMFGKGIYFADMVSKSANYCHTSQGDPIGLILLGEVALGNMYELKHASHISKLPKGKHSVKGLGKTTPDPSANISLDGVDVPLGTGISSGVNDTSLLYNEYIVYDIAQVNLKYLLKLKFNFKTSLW

As usually defined, the pIC50 is the IC50 on a negative log10 scale, so that one unit is a factor of ten. Low values mean a large IC50, high ones a small IC50.

`O=c1[nH]c2c(c3ccccc13)Cc1cc([N+](=O)[O-])ccc1-2` gave a pIC50 of 6.52.
For the compound `O=S(=O)(NCCCNN1CCOCC1)c1cc2c(cc1F)-c1nc(O)c3ccccc3c1C2`, the pIC50 was 6.35.
`O=c1[nH]c2c(c3ccccc13)Cc1cc(F)ccc1-2` showed a pIC50 of 6.19.
`O=C(CN1CCOCC1)Nc1ccc2c(c1)-c1nc(O)c3ccccc3c1C2`: the pIC50 was < 5.52 and 6.40.
Compound `Nc1ccc2c(c1)Cc1c-2[nH]c(=O)c2ccccc12` had a pIC50 of 7.01.
Under `O=c1[nH]c2c(c3ccccc13)Cc1ccccc1-2` stands below 5.52; under `Nc1ccc2c(c1)-c1[nH]c(=O)c3ccccc3c1C2`, 6.52.
Compound `CN1CCN(CC(=O)Nc2ccc3c(c2)-c2[nH]c(=O)c4ccccc4c2C3)CC1` showed a pIC50 below 5.52.
`O=c1[nH]c2c(c3ccccc13)Cc1cc(S(=O)(=O)NCCCn3ccnc3)ccc1-2`: the pIC50 was 6.40.
The result for `O=c1[nH]c2c(c3ccccc13)Cc1cc(S(=O)(=O)NCCCc3ccccc3)ccc1-2` reads below 5.52; that for `Oc1nc2c(c3ccccc13)Cc1ccc(F)cc1-2`, 6.30.
`O=[N+]([O-])c1ccc2c(c1)-c1nc(O)c3ccccc3c1C2` gave a pIC50 of 6.30.
Under `O=S(=O)(O)c1ccc2c(c1)Cc1c-2nc(O)c2ccccc12` stands 6.15; under `O=c1[nH]c2c(c3ccccc13)Cc1cc(S(=O)(=O)n3ccnc3)c(F)cc1-2`, 6.30.
